Test results taken from patent US11702404B2, “GLP-1R modulating compounds” (priority 2019, dated 2023).
Like-named read-outs stand apart in the source and are kept apart here.

What was measured:
[1] = Microsomal stability, human liver microsomes (predicted hepatic clearance); conditions: predicted from in vitro microsomal stability data
[2] = target: GLP-1R (Homo sapiens, UniProt P43220); assay: GLP-1R activation: cAMP increase in CHO cells stably expressing GLP-1R; format: cell-based
[3] = cAMP increase, CHO cells stably expressing GLP-1R, 10 point dose response, 30 minutes incubation, read-out: EC50

GLP-1R, sequence (P43220 24-463): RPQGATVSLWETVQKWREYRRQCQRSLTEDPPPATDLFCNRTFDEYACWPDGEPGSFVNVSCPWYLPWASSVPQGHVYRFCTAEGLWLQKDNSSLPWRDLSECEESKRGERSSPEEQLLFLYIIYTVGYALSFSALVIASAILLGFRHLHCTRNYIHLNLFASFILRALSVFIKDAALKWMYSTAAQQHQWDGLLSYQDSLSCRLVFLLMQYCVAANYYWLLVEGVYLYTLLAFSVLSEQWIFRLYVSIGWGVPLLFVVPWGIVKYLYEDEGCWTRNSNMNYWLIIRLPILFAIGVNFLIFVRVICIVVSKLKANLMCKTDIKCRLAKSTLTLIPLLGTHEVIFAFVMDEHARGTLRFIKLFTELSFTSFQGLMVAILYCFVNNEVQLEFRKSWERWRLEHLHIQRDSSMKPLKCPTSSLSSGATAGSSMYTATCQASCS

Row | SMILES | Predicted Hepatic Clearance (Pred. Cl.) [1] [mL/min/kg] | EC50 [2, 3] [nM] | EC50 ([2]; read-out: EC50) [nM] | EC50 ([2]; EC50 (nM)) [nM]
1 | COCCn1c(Cc2ccc(-c3cccc(OCc4ccc(C#N)cc4F)n3)cc2-c2ccsc2)nc2ccc(C(=O)O)cc21 [Example 176, 2-(4-(6-((4-cyano-2-fluorobenzyl)oxy)pyridin-2-yl)-2-(thiophen-3-yl)benzyl)-1-(2-methoxyethyl)-1H-benzo[d]imidazole-6-carboxylic acid] | <1.83 | 273 | – | –
2 | N#Cc1cc(F)c(COc2nc(-c3ccc(Cc4nc5ccc(C(=O)O)cc5n4C[C@@H]4CCO4)cc3F)ccc2F)cc1F [Example 676] | 2.33 | 0.52 | – | –
3 | COCCn1c(Cc2cc(F)c(-c3cccc(OCc4ccc(C#N)s4)n3)cc2F)nc2ccc(C(=O)O)cc21 [Example 805] | 12 | 7.12 | – | –
4 | C[C@]1(Cn2c(Cc3ccc(-c4cccc(OCc5ccc(C#N)cc5F)n4)cc3F)nc3ccc(C(=O)O)cc32)CCO1 [Example 123, (R)-2-(4-(6-((4-cyano-2-fluorobenzyl)oxy)pyridin-2-yl)-2-fluorobenzyl)-1-((2-methyloxetan-2-yl)methyl)-1H-benzo[d]imidazole-6-carboxylic acid] | 5.17 | 3.12 | – | –
5 | N#Cc1ccc(COc2nccc(-c3cc(F)c(Cc4nc5c(F)cc(C(=O)O)cc5n4C[C@@H]4CCO4)cc3F)n2)c(F)c1 [Example 420, (S)-2-(4-(2-((4-cyano-2-fluorobenzyl)oxy)pyrimidin-4-yl)-2,5-difluorobenzyl)-4-fluoro-1-(oxetan-2-ylmethyl)-1H-benzo[d]imidazole-6-carboxylic acid] | 3.5 | 0.05 | – | –
6 | N#Cc1ccc(COc2cccc(-c3ccc(Cc4nc5ccc(C(=O)O)cc5n4[C@H]4CCOC4)c(F)c3)n2)c(F)c1 [Example 204, (S)-2-(4-(6-((4-cyano-2-fluorobenzyl)oxy)pyridin-2-yl)-2-fluorobenzyl)-1-(tetrahydrofuran-3-yl)-1H-benzo[d]imidazole-6-carboxylic acid] | 5.33 | 7.37 | – | –
7 | COCCn1c(Cc2ccc(-c3cccc(OC4CCOc5cc(C#N)ccc54)n3)cc2F)nc2ccc(C(=O)O)cc21 (stereo not drawn) [Example 246, 2-(4-(6-((7-cyanochroman-4-yl)oxy)pyridin-2-yl)-2-fluorobenzyl)-1-(2-methoxyethyl)-1H-benzo[d]imidazole-6-carboxylic acid] | 4.67 | 1110 | – | –
8 | N#CCC1(Cn2c(Cc3ccc(-c4ccnc(OCc5ccc(Cl)cc5F)n4)cc3F)nc3ccc(C(=O)O)cc32)CC1 [Example 79, 2-(4-(2-((4-chloro-2-fluorobenzyl)oxy)pyrimidin-4-yl)-2-fluorobenzyl)-1-((1-(cyanomethyl)cyclopropyl)methyl)-1H-benzo[d]imidazole-6-carboxylic acid] | 8.83 | 1.04 | – | –
9 | N#Cc1cc(F)c(COc2nccc(-c3ccc(Cc4nc5ccc(C(=O)O)cc5n4C[C@@H]4CCO4)cc3F)n2)cc1F [Example 789] | 5.67 | 1.18 | – | –
10 | CC(=O)N1CC[C@@H]1Cn1c(Cc2cc(F)c(-c3cccc(OCc4ccc(C#N)cc4F)n3)cc2F)nc2ccc(C(=O)O)cc21 [Example 925, (R)-1-((1-acetylazetidin-2-yl)methyl)-2-(4-(6-((4-cyano-2-fluorobenzyl)oxy)pyridin-2-yl)-2,5-difluorobenzyl)-1H-benzo[d]imidazole-6-carboxylic acid] | 5.83 | – | 3.63 | –
11 | N#CCC1(Cn2c(Cc3cc(F)c(-c4ccnc(OCc5ccc(C(F)F)cc5F)n4)cc3F)nc3ccc(C(=O)O)cc32)CC1 [Example 751] | 7.17 | 0.19 | – | –
12 | COCCn1c(Cc2ccc(-c3cccc(OCc4cccc(C(C)C)c4OC)n3)cc2F)nc2ccc(C(=O)O)cc21 [Example 157, 2-(2-fluoro-4-(6-((3-isopropyl-2-methoxybenzyl)oxy)pyridin-2-yl)benzyl)-1-(2-methoxyethyl)-1H-benzo[d]imidazole-6-carboxylic acid] | 7.67 | 534 | – | –
13 | COCCn1c(Cc2ccc(-c3cc(C#N)cc(OCc4ccc(C#N)cc4F)n3)cc2F)nc2ccc(C(=O)O)cc21 [Example 85, 2-(4-(4-cyano-6-((4-cyano-2-fluorobenzyl)oxy)pyridin-2-yl)-2-fluorobenzyl)-1-(2-methoxyethyl)-1H-benzo[d]imidazole-6-carboxylic acid] | 3.67 | 4.9 | – | –
14 | CC(C)(C)OCCn1c(Cc2cc(F)c(-c3cccc(OCc4ccc(C#N)cc4F)n3)cc2F)nc2ccc(C(=O)O)cc21 [Example 893, 1-(2-(tert-butoxy)ethyl)-2-(4-(6-((4-cyano-2-fluorobenzyl)oxy)pyridin-2-yl)-2,5-difluorobenzyl)-1H-benzo[d]imidazole-6-carboxylic acid] | 1.83 | – | – | 35.3
15 | COCCn1c(Cc2cc(F)c(-c3cccc(OCc4ccc(C#N)cc4F)n3)cc2F)nc2cc(OC)c(C(=O)O)cc21 [Example 836] | 1.83 | 9.29 | – | –
16 | N#Cc1ccc(COc2cccc(-c3cc(F)c(Cc4nc5ccc(C(=O)O)cc5n4[C@@H]4CCC(F)(F)C4)cc3F)n2)c(F)c1 [Example 699] | 4.67 | 83.9 | – | –
17 | COCCn1c(Cc2cc(F)c(-c3cccc(OCc4ccc(-c5cc[nH]c(=O)c5)cc4F)n3)cc2F)nc2ccc(C(=O)O)cc21 [Example 912] | 1.83 | 15.3 | – | –
18 | N#Cc1ccc(COc2cccc(-c3ccc(Cc4nc5ccc(C(=O)O)cc5n4CCOC(F)(F)F)c(F)c3)n2)c(F)c1 [Example 323, 2-(4-(6-((4-cyano-2-fluorobenzyl)oxy)pyridin-2-yl)-2-fluorobenzyl)-1-(2-(trifluoromethoxy)ethyl)-1H-benzo[d]imidazole-6-carboxylic acid] | 4.33 | 27.5 | – | –
19 | N#Cc1ccc(COc2cccc(-c3cc(F)c(Cc4nc5c(F)cc(C(=O)O)cc5n4CCOC(F)F)cc3F)n2)c(F)c1 [Example 892] | 5.5 | 0.78 | – | –
20 | COCCn1c(Cc2cc(F)c(-c3cccc(OCc4ccc(-c5ccn(C)n5)cc4F)n3)cc2F)nc2ccc(C(=O)O)cc21 [Example 917] | 1.83 | 56.7 | – | –
21 | N#Cc1ccc(COc2cccc(-c3ccc(Cc4nc5ccc(C(=O)O)cc5n4C[C@@H]4CCO4)cc3F)n2)cn1 [Example 656] | 4.67 | 1.52 | – | –
22 | COCCn1c(Cc2ccc(-c3cccc(OCC(=O)c4ccccc4)n3)cc2F)nc2ccc(C(=O)O)cc21 [Example 214, 2-(2-fluoro-4-(6-(2-oxo-2-phenylethoxy)pyridin-2-yl)benzyl)-1-(2-methoxyethyl)-1H-benzo[d]imidazole-6-carboxylic acid] | 16.3 | 745 | – | –
23 | O=C(O)c1ccc2nc(Cc3cc(F)c(-c4ccnc(OCc5ccc(C(F)F)cc5F)n4)cc3F)n(C[C@@H]3CCO3)c2c1 [Example 801] | 3.17 | 0.12 | – | –
24 | O=C(O)c1ccc2nc(Cc3ccc(-c4cccc(OCc5ccc(C(F)F)cc5F)n4)cc3F)n(C[C@@H]3CCO3)c2c1 [Example 829] | 1.83 | 0.18 | – | –
